“And” between values parts separate entries of the source, which are not always exact repeats. Equal values may be shown once. “Also recorded” adds a separate entry of the source. Read-outs that look alike come from different tables or passages of the source.
How the values were obtained:
human CaSR [1] = molecular target: T1, human CaSR (Homo sapiens, UniProt P41180); assay: FLIPR-based functional CaSR calcium assay in HCAR cells; type: cell-based; conditions: for fold improvement in potency toward CaSR compared to evocalcet / fold increase in potency toward CaSR compared to the evocalcet-linker conjugate: FLIPR assay
T1 construct: host or cells: CCL39 hamster lung fibroblasts stably transfected (HCAR), Geneticin selection
T1 sequence (P41180 20-1078): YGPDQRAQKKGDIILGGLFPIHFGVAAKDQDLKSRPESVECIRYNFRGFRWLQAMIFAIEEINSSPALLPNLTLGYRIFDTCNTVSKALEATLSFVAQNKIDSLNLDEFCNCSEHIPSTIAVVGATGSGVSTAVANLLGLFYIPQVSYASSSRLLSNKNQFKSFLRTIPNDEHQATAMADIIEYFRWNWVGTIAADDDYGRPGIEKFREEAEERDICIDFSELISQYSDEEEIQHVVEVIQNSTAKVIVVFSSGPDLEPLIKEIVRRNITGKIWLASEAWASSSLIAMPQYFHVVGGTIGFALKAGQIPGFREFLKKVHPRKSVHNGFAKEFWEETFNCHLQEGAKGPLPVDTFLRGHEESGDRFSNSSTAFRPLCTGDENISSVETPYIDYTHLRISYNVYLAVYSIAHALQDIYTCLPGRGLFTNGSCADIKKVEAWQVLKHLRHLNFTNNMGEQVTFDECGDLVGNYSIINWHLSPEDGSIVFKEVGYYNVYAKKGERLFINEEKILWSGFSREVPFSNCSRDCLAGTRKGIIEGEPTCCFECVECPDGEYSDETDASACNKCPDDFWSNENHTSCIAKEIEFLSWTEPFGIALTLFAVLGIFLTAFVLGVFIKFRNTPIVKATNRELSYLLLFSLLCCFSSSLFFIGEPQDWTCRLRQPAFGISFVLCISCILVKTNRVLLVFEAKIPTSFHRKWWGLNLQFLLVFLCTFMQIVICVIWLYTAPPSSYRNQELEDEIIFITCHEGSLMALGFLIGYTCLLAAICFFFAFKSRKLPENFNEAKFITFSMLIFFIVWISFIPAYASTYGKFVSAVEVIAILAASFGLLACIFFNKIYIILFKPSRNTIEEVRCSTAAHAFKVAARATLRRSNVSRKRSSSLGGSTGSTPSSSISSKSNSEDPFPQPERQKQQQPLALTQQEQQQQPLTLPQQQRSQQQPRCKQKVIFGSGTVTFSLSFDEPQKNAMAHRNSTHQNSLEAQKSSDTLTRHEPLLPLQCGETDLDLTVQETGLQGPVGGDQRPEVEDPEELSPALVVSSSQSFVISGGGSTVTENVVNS
Method: (§1) Hamster lung fibroblasts (CCL39, CaSR−) expressing the recombinant human CaSR (HCAR, CaSR+) and nontransected controls were kindly provided by Novartis AG and were kept in standard culturing conditions (37 °C, 5% CO2) in 1/2 DMEM (Roth, 9005.1)—1/2 F-12 (Sigma, N4888–500 mL) media containing 10% FBS. Media for the HCAR cells contained 500 μg/mL Geneticin as a selection antibiotic (Thermo Fisher, 10131035). Upon reaching 90–95% confluence, cells were detached and seeded into 96-well plates (PerkinElmer, 6005182) at a concentration of 35,000 cells per well and were incubated for 24 h before the experiment. For the functional CaSR calcium assay, cells were first washed twice with HBSS medium (Sigma, H6648), and were incubated in HBSS containing 5 μM Fluo-8 AM and 0.1 mM CaCl2 for 30 min at 37 °C. Calcium transients were measured upon addition of 0.5 mM CaCl2 with the FLIPR Tetra high-throughput cellular screening systems using the 470–495 nm LED excitation and 515–575 nm bandpass emission filters. Probe solutions contained 0.5% DMSO and were added to the cells 10 min prior to the measurement. dF/F0 values were calculated as a change in the peak fluorescence value of the transient for the first 200 data points normalized to the background fluorescence of the well. […] Both cells were washed with HBSS medium twice and then incubated for 10 min at 37 °C in HBSS medium containing 0.1% BSA in the presence or absence of 10 μM evocalcet. Upon the removal of media, cells were incubated in various concentrations of EvoSiR4 and EvoSiR6 in HBSS containing 0.1% BSA for 30 min at 37 °C and were subsequently washed 3 times with 0.1% BSA and resuspended in DMSO before the fluorometric measurement. The fluorescence was measured using a Tecan GENios pro microplate reader with the following parameters: λex = 612 nm, λem = 670 nm, gain = 50 AU. Data for the EvoSiR probes and the evocalcet competition is reported as CaSR-specific fluorescence, which was calculated by dividing the absolute fluorescence of the HCAR cells with the absolute fluorescence of the CCL39 cells for each concentration.

human CaSR [2] = molecular target: T1, human CaSR; assay: CaSR binding affinity estimated from differential fluorescence between HCAR (CaSR+) and CCL39 (CaSR-) cells
Method: as §1

[3] = molecular target: T2, bovine serum albumin (BSA) (Bos taurus, UniProt P02769); assay: Spectrofluorometric analysis of fluorogenicity upon BSA binding; type: physicochemical; conditions: for increase in absolute fluorescence upon addition of 1% BSA: 1% BSA compared to PBS
T2 construct: purchased Sigma A7906
Method: Spectrofluorometric measurements were carried out by using the Agilent Cary Eclipse instrument. The voltage of the photomultiplier tube (PMT) was set to 600 for EvoSiR4 and EvoSiR6, and for 500 for SiR (4). Fluorescence of the probes was measured at concentrations ranging from 30 to 3000 nM in PBS containing various amounts of bovine serum albumin (BSA) (Sigma, A7906). Quenching experiments for the calculation of BSA binding were performed by adding a 1:1 molar ratio of tannic acid dissolved in ddH2O (Sigma, 403040) to the solution prior to measuring fluorescence.

[4] = EC50, positive allosteric modulation of CaSR activity, HCAR cells, response to addition of 0.5 mM CaCl2, no BSA

T2 sequence (P02769 25-607): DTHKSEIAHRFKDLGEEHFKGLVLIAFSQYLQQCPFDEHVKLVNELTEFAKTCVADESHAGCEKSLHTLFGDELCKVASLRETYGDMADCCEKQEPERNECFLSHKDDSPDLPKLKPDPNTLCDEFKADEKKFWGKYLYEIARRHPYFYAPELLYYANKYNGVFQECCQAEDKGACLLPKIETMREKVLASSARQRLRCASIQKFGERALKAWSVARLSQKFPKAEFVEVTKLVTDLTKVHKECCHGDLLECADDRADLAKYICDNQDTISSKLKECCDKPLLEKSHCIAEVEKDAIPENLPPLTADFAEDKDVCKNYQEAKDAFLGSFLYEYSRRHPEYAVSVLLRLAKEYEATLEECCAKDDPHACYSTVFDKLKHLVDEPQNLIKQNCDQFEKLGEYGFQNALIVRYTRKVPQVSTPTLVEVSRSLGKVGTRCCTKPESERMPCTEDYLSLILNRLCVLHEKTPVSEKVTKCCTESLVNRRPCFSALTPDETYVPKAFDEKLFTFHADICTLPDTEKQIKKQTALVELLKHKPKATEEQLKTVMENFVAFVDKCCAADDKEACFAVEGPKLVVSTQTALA

EC50 (human CaSR [1]; HCAR cells, response to addition of 0.5 mM CaCl2, no BSA, read-out: EC50, positive allosteric modulation of CaSR activity) [nM]	effect of preincubation on CaSR-specific increase in relative fluorescence of EvoSiR probes (human CaSR [2]; 10 μM evocalcet preincubation)	Structure (SMILES)	EC50 (human CaSR [1]; [4])	EC50 (human CaSR [1]; EC50 in 0.1% BSA, 0.1% BSA) [nM]	EC50 (human CaSR [1]; EC50 in 0.5% BSA, 0.5% BSA) [nM]	EC50 (human CaSR [1]; EC50 in 1% BSA, 1% BSA) [nM]	fold improvement in potency toward CaSR compared to evocalcet (human CaSR [1]) [fold]	fold increase in potency toward CaSR compared to the evocalcet-linker conjugate (human CaSR [1]) [fold]	fold reduction in the EC50 value upon washing with HBSS (human CaSR [1]; incubated in 1% BSA, washed with HBSS upon 10 min incubation) [fold]	Kd (human CaSR [2]) [nM]	fold increased fluorescence in 0.1% BSA compared to PBS [3] [fold]	increase in absolute fluorescence upon addition of 1% BSA [3] [%]	effect of preincubating the BSA solution with evocalcet on EvoSiR4 fluorescence ([3]; evocalcet 30–6000 nM, 350 nM EvoSiR4)
–	–	Cc1cc(C(=O)NCCCCNC(=O)Cc2ccc(N3CC[C@H](N[C@H](C)c4cccc5ccccc45)C3)cc2)ccc1C1=C2C=CC(=[N+](C)C)C=C2[Si](C)(C)c2cc(N(C)C)ccc21 [EvoSiR4]	< 45 nM and ~40 nM and 38 nM	64 ± 12	102 ± 34	106 ± 42	6	3	10	53.6 ± 18.4	4	400	–
243 ± 15	completely abolished	C[C@@H](N[C@H]1CCN(c2ccc(CC(=O)O)cc2)C1)c1cccc2ccccc12 [evocalcet]	–	–	–	–	–	–	–	–	–	–	No significant decrease; also recorded: no significant difference
–	–	Cc1cc(C(=O)NCCCCCCNC(=O)Cc2ccc(N3CC[C@H](N[C@H](C)c4cccc5ccccc45)C3)cc2)ccc1C1=C2C=CC(=[N+](C)C)C=C2[Si](C)(C)c2cc(N(C)C)ccc21 [EvoSiR6]	< 45 nM and ~40 nM and 42 nM	–	–	–	6	3	–	71 ± 9.56	1.8	250	–
